This assay has as its target T1, AbDHDPS (Acinetobacter baumannii, UniProt D0CFC3).
T1 sequence (D0CFC3 1-297): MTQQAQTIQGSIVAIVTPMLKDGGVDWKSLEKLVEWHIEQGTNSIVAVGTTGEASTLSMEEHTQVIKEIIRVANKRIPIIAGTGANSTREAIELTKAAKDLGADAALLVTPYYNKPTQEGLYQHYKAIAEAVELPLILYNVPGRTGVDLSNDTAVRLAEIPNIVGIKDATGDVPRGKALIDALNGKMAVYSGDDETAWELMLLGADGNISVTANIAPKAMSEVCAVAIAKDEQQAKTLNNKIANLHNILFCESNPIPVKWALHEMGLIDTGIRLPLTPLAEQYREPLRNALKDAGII
The experiment in a line: DHDPS-DHDPR coupled assay, NADPH oxidation at […] nm. It is filed as biochemical.

Molecules are shown by their SMILES.

As a reminder, the IC50 is the point on the concentration scale where inhibition reaches its midpoint. Low readings indicate greater potency in that assay, high ones weaker potency in that assay. With `CS(=O)(=O)NNc1ccccc1` [N’-phenylmethanesulfonohydrazide], it took 35 µM to reach half-maximal inhibition (IC50).
